Results as given in US5071875A (Northwestern University, priority 1989, dated 1991).

Columns and labels:
melatonin receptor [1] = test: Inhibition of 2-[125I]iodomelatonin binding to chicken retinal membranes; conditions: for IC50: read-out: IC50, inhibition of 2-[125I]iodomelatonin binding to chicken retinal membranes, 0° C., 5 hr, in the dark
Protocol: Dubocovich, et al., Proc. Nat'l.
The compounds to be tested were dissolved in 1 mM HCl with 0.1% bovine serum albumin. Binding was initiated by addition of 220-μl aliquots of retinal membranes resuspended in the Tris-HCl buffer to tubes containing 20 μl of test compound or vehicle, and radioligand. […] Reactions were terminated by addition of 5 ml of ice-cold Tris-HCl buffer, and the contents were immediately filtered through glass-fiber filters (Schleicher & Schuell no. 30) soaked in 0.5% (vol/vol) polyethylenimine solution. Each filter was washed twice with 5 ml of the cold buffer. Radioactivity was determined in a gamma counter.

melatonin receptor [2] = molecular target: T1, melatonin receptor (Oryctolagus cuniculus, UniProt G1SUP2); test: Inhibition of calcium-dependent [3H]dopamine release from rabbit retina (melatonin agonist assay); assay type: cell-based; conditions: for inhibition at 1 µM: 1 μM concentration of test compound, read-out: % Maximal Inhibition of [3H]dopamine release; for IC50: compound added before S2, S-sulpiride 0.1 μM present
T1 construct: Typically, the rabbit retina tissues preincubation with [^3 H]-dopamine for 10 minutes; from tissue; host or cells: rabbit retina (superfused retinal tissue)
T1 sequence (G1SUP2 1-362): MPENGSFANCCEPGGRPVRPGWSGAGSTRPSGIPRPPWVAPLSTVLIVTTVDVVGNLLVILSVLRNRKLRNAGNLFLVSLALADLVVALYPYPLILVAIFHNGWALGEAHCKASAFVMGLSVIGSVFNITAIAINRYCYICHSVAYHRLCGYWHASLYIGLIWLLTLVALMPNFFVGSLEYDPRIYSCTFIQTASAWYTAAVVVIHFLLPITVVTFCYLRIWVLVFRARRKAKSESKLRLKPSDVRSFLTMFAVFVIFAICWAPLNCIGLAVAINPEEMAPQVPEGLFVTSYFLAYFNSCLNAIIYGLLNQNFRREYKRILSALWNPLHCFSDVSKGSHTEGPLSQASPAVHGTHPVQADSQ
Protocol: Accordingly, all experiments were run in the presence of S-sulpiride (0.1 μM) to block D-2 dopamine autoreceptors present in the dopamine amacrine cells of retina.
Thus, the lower the IC50, the greater the agonistic activity.
Assays were performed as described in Dubocovich, J. Pharm. […] Retinal tissues are incubated for 10 min at 37° C. in the presence of 0.1 μM [^3 H]dopamine. The tissue was then washed in Krebs' solution at 37° C. and transferred to individual cylindrical plastic tubes having a thin nylon mesh on the bottom. These plastic tubes were then transferred to individual glass superfusion chambers containing platinum electrodes 30 mm apart. The tissue samples are superfused with Krebs' solution, starting at time equal zero until a leveling off of the spontaneous release of radioactivity occurred (about 60 mins). A time equal 60 mins S1 is applied.
Tritium release, i.e., release of [^3 H]dopamine, was elicited by field stimulation at 3 Hz, 20 mA, 2 msec duration. Field stimulations were applied in each experiment at either 60 (S1) or 100 (S2), min after the end of the incubation with [^3 H]dopamine. Samples of the superfusate were collected before, during, and after the period of stimulation. At the end of each experiment, the retinal tissue contained in each chamber was solubilized and the tritium content remaining in the retinal tissue was determined by liquid scintillaton counting. [drawing 8]
The inhibition of [^3 H]dopamine overflow (the percentage of total tissue radioactivity released by field stimulation above the spontaneous release levels, expressed as the ratio S2 /S1) is plotted as a function of the molar concentrations of the test compound (logarithmic scale).

melatonin receptor [3] = molecular target: T1, melatonin receptor; test: Antagonism of melatonin-induced inhibition of [3H]dopamine release from rabbit retina; assay type: cell-based; conditions: for shift of the melatonin concentration effect curve: 0.1 μM and 1 μM of test compound, compared with melatonin alone
Protocol: In this example, the test compound is added before the first period of electrical stimulation (S1) and remains present until the end of the experiment.
Typically, the rabbit retina tissues preincubation with [^3 H]-dopamine for 10 minutes is followed by a superfusion with Krebs solution at time equal zero. At time equal 20 minutes the test compound of interest is added. At time equal 60 minutes S1 is applied.
The ratio S2 /S1 can be plotted as a function of the molar concentrations of the test compound used (logarithmic scale).

melatonin receptor [4] = molecular target: T1, melatonin receptor; conditions: cited from earlier work
melatonin receptor [5] = conditions: cited from earlier work
frog skin = conditions: cited from earlier work
melatonin receptor [6] = molecular target: T1, melatonin receptor; conditions: cited from earlier work; remark: listed apart in the source
[7] = test compound 0.1 μM, melatonin 1 nM
[8] = test compound 0.1 μM, melatonin 10 nM
[9] = test compound 1 μM, melatonin 1 nM
[10] = test compound 1 μM, melatonin 10 nM

Row | SMILES | IC50 (melatonin receptor [1]) [nM] | inhibition at 1 µM (melatonin receptor [2]) [%] | IC50 (melatonin receptor [2]) [nM] | further results
1 | COc1cccc2c1CCC(NC(C)=O)C2 (stereo not shown) [AH 018, 5-methoxy-2-acetamido-tetralin] | 16000 | – | – | –
2 | CCC(=O)NC1Cc2ccccc2C(Cc2ccccc2)C1 (stereo not shown) [AH 027, 4-benzyl-2-propionamido-tetralin] | 790 | 65 | 13 | activity in competitively inhibiting the binding of 2-[125I]iodomelatonin to the melatonin binding site (in words) (melatonin receptor [1]): high activity; melatonin agonist activity (in words) (melatonin receptor [2]): melatonin agonists
3 | CCC(=O)NC1Cc2ccccc2C(c2ccccc2)C1 (stereo not shown) [AH 024, 4-phenyl-2-propionamido-tetralin] | 250 | – | > 1000 | antagonism of melatonin-induced inhibition of [3H]dopamine release (in words) (melatonin receptor [3]): antagonize the melatonin-induced inhibition of [^3 H]dopamine release; shift of the melatonin concentration effect curve (melatonin receptor [3]): shift to the right; S2/S1 (melatonin receptor [3]; test compound 0.1 μM, melatonin 0.1 nM): 1.01 ± 0.07; S2/S1 (melatonin receptor [3]; [7]): 0.76 ± 0.01; S2/S1 (melatonin receptor [3]; [8]): 0.25 ± 0.01; S2/S1 (melatonin receptor [3]; [9]): 0.91 ± 0.06; S2/S1 (melatonin receptor [3]; [10]): 0.61 ± 0.01; activity in competitively inhibiting the binding of 2-[125I]iodomelatonin to the melatonin binding site (in words) (melatonin receptor [1]): high activity
4 | COc1cccc2c1CC(NC(=O)Cc1ccccc1)CC2 (stereo not shown) [AH 016, 8-methoxy-2-phenylacetamido-tetralin] | – | 0 | > 1000 | –
5 | CC(=O)NCCc1c[nH]c2ccccc12 [N-acetyltryptamine] | – | – | – | melatonin receptor activity in rabbit retina (in words) (melatonin receptor [4]): partial melatonin agonist; melatonin receptor activity in chicken retina (in words) (melatonin receptor [5]): competitive melatonin receptor antagonist; effect on melatonin-induced lightening of α-MSH-induced darkening of frog skin (frog skin): antagonize the melatonin-induced lightening
6 | O=C(CCl)NC1Cc2ccccc2C(c2ccccc2)C1 (stereo not shown) [AH 026, 4-phenyl-2-chloroacetamido-tetralin] | – | – | > 1000 | –
7 | O=C(CCl)NC1CCc2ccccc2C1 (stereo not shown) [AH 011, 2-chloroacetamido-tetralin] | – | 80 | 1.3 | –
8 | COc1cccc2c1CC(NC(=O)C(C)C)CC2 (stereo not shown) [AH 014, 8-methoxy-2-iso-butyramido-tetralin] | 4620 | 80 | 7.94 | –
9 | COc1cccc2c1CC(NC(=O)C1CC1)CC2 (stereo not shown) [AH 015, 8-methoxy-2-cyclopropanecarbonylamido-tetralin] | 2940 | 80 | 2.51 | melatonin agonist activity (in words) (melatonin receptor [2]): melatonin agonists
10 | CC(=O)NC1Cc2ccccc2C(c2ccccc2)C1 (stereo not shown) [AH 023, 4-phenyl-2-acetamidotetralin] | 630 | – | > 1000 | antagonism of melatonin-induced inhibition of [3H]dopamine release (in words) (melatonin receptor [3]): antagonize the melatonin-induced inhibition of [^3 H]dopamine release; shift of the melatonin concentration effect curve (melatonin receptor [3]): shift to the right; S2/S1 (melatonin receptor [3]; test compound 0.01 μM, melatonin 0.1 nM): 0.69 ± 0.11; S2/S1 (melatonin receptor [3]; test compound 0.01 μM, melatonin 1 nM): 0.30 ± 0.04; S2/S1 (melatonin receptor [3]; [7]): 0.73 ± 0.04; S2/S1 (melatonin receptor [3]; [8]): 0.37 ± 0.06; S2/S1 (melatonin receptor [3]; test compound 1 μM, melatonin 0.1 nM): 1.02 ± 0.03; S2/S1 (melatonin receptor [3]; [9]): 0.92 ± 0.07; S2/S1 (melatonin receptor [3]; [10]): 0.69 ± 0.03; activity in competitively inhibiting the binding of 2-[125I]iodomelatonin to the melatonin binding site (in words) (melatonin receptor [1]): high activity
11 | COc1cccc2c1CC(NC(=O)CCl)CC2 (stereo not shown) [AH 017, 8-methoxy-2-chloroacetamidotetralin] | – | 75 | 0.063 | –
12 | COc1cccc2c1CC(NC(=O)c1ccccc1)CC2 (stereo not shown) [AH 007, 8-methoxy-2-benzoylamido-tetralin] | > 10000 | 40 | 10 | –
13 | CC(=O)NC1CC(Cc2ccccc2)c2ccccc2C1=O (stereo not shown) [AH 028, 2-Acetamido-4-benzyl-1-tetralone] | 25000 | 60 | 16 | –
14 | CCC(=O)NC1CCc2cccc(OC)c2C1 (stereo not shown) [AH 002, 8-methoxy-2-propionamidotetralin] | – | – | – | activity in competitively inhibiting the binding of 2-[125I]iodomelatonin to the melatonin binding site (in words) (melatonin receptor [1]): high activity
15 | CC(=O)NC1Cc2ccccc2C(Cc2ccccc2)C1 (stereo not shown) [AH 025, 4-benzyl-2-acetamidotetralin] | 400 | 70 | 4 | activity in competitively inhibiting the binding of 2-[125I]iodomelatonin to the melatonin binding site (in words) (melatonin receptor [1]): high activity; melatonin agonist activity (in words) (melatonin receptor [2]): melatonin agonists
16 | CC(=O)NC1CCc2ccccc2C1 (stereo not shown) [AH 005, 2-acetamidotetralin] | 20000 | 50 | 52.2 | –
17 | O=C(CCl)NC1Cc2ccccc2C(Cc2ccccc2)C1 (stereo not shown) [AH 029, 4-benzyl-2-chloroacetamido-tetralin] | – | 70 | 10 | –
18 | CC(=O)NCCc1c(Cc2ccccc2)[nH]c2ccccc12 [Luzindole, 2-benzyl-N-acetyltryptamine] | – | – | – | effect on spontaneous outflow and calcium-dependent release of [3H]dopamine (melatonin receptor [4]; concentrations up to 10 μM, compound alone): does not modify; antagonism of the ability of melatonin to inhibit [3H]dopamine release (melatonin receptor [6]): antagonize the ability of melatonin to inhibit [^3 H]dopamine release in a competitive fashion
19 | O=C(NC1CCc2ccccc2C1)c1ccccc1 (stereo not shown) [AH 019, 2-benzoylamido-tetralin] | > 10000 | – | – | –
20 | COc1ccc2c(c1)CC(NC(C)=O)CC2 (stereo not shown) [AH 008, 7-methoxy-2-acetamido-tetralin] | > 10000 | – | – | –
21 | CCCC(=O)NC1CCc2cccc(OC)c2C1 (stereo not shown) [AH 013, 8-methoxy-2-n-butyramidotetralin] | 257 | 80 | 1.18 | activity in competitively inhibiting the binding of 2-[125I]iodomelatonin to the melatonin binding site (in words) (melatonin receptor [1]): high activity; melatonin agonist activity (in words) (melatonin receptor [2]): melatonin agonists
22 | COc1cccc2c1CC(NC(C)=O)CC2 (stereo not shown) [AH 001, 8-methoxy 2-acetamido-tetralin] | – | – | – | activity in competitively inhibiting the binding of 2-[125I]iodomelatonin to the melatonin binding site (in words) (melatonin receptor [1]): high activity
23 | CCCC(=O)NC1CCc2ccccc2C1 (stereo not shown) [AH 020, 2-butyramido-tetralin] | 2910 | – | – | –
24 | CCC(=O)NC1CCc2ccccc2C1 (stereo not shown) [AH 006, 2-propionamido-tetralin] | 13000 | 70 | 8.13 | –
